Experimental data: patent publication US7169567B1, “Screening assay utilizing the PTH receptor” (The General Hospital Corporation, priority 1998, dated 2007)
Where no end group is shown, it is not given here.

What was measured:
[1] = system: PTH-1 receptor (intact or truncated receptors used in this study); assay: Competition and direct binding assays (radioiodinated rPTH(1–34) tracer or radiolabeled PTH(1–14) analog); conditions: unlabeled peptide; radioiodinated rPTH(1–34) as tracer ligand; data not shown
Source text: This reduced potency is not surprising, given that the PTH(1–14) peptide lacks important receptor-binding residues located in the PTH(15–34) region in the PTH(15–34) domain (Nussbaum, S. R., et al., J. Biol. Chem. 255:10183–10187 (1980); Gardella, T. J., et al., Endrocrinology 132(5):2024–2030 (1993); Caulfield, M. P., et al., Endocrinology 127:83–87 (1990); and Abou-Samra, A.-B., et al., Endocrinology 125:2215–2217 (1989)).

[2] = biological target: T1, intact rat PTH-1 receptor (rWT-HA) (Rattus norvegicus, UniProt P25961); assay: cAMP response in COS-7 cells transiently transfected with intact rat PTH-1 receptor (rWT-HA); format: cell-based; conditions: COS-7 cells expressing rWT-HA
T1 construct: expressed in transfected cells; host or cells: COS-7, transient (DEAE-dextran), pCDNA-1 based plasmid
T1 sequence (P25961 23-591 E93Y/N94P/K95Y/T99D/G100Y/S101A limits assumed): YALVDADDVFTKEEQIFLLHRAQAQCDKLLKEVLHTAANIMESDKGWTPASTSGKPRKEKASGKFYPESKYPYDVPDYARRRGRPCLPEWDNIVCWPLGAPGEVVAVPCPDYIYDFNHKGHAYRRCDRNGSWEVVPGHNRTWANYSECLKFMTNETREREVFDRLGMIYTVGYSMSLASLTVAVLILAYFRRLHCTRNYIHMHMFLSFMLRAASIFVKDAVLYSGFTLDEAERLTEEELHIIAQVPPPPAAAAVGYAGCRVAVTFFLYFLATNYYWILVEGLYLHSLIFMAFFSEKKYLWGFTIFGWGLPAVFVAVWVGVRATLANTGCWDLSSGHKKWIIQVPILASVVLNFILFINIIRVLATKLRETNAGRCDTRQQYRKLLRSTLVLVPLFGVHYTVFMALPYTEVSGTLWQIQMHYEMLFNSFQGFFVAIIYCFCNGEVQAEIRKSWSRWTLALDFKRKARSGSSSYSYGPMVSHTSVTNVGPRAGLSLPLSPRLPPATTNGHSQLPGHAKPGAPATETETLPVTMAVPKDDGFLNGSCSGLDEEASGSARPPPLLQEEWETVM
Source text: FIG. 4. PTH Responses of Intact and Truncated PTH-1 Receptors in COS-7 Cells. Shown at the top are schematics of the intact (A) and truncated (B) rat PTH-1 receptors used for transient transfection of COS-7 cells, and subsequent cAMP response assays. The conserved extracellular cysteine residues are depicted as open circles and numbered according to sequence position, and the nine amino acids of the epitope tag (HA) in rWT-HA are shaded. The tics at residue 26 and 181 indicate the endpoints of the deletion in rΔNt. Based on the predicted signal peptide cleavage site at Ala-22, residues 23–25 in rΔNt are joined to residue 182. The cAMP responses of COS-7 cells expressing the intact receptor (C) and rΔNt (D) to rPTH(1–34) (J) or rPTH(1–14) (C) are also shown. The graphs show combined data (mean±s.e.m.) from five separate experiments, each performed in duplicate.
FIG. 5. Alanine-scan of PTH(1–14) with Intact and Truncated PTH Receptors. COS-7 cells transiently transfected with rWT-HA (A) or rCE I-G (B) were treated with 100 mM of native rat PTH(1–14) or 100 mM of a rPTH(1–14) analog containing a single alanine substitution for 1 h at 21° C., and the resulting intracellular cAMP levels were measured by RIA. The amino acid substitutions are indicated on the axis labels. Peptides were tested in duplicate, and a single experiment representative of three others is shown. […]

## PTH(1–14): Amino-terminal peptide fragment based on the rat PTH sequence, residues 1–14, C-terminally amidated (AVSEIQLMHNLGKH-NH2)
[1]
  binding in standard competition binding assays: bound too weakly to permit detection
[2]
  potency relative to PTH(1–34) with rWT-HA: four to five orders of magnitude weaker
